These results are taken from EP2307018B1, “OXYMATRINE COMPOSITIONS AND USE THEREOF FOR TREATING AND PREVENTING CHRONIC INFECTIOUS DISEASES” (Chia, John K.S., priority 2008, dated 2010).

Assay [1] concerns Coxsackievirus B. The following applies: intravenous matrine; 0% in the placebo-treated group; cited from earlier work.
For assay [2], the system named is coxsackievirus B. Conditions: in vitro; mechanism not defined; cited from earlier work.
The test system of the next assay is echoviruses. The following applies: in vitro; mechanism not defined; cited from earlier work.
The next assay deals with enterovirus. The assay can be described thus: case report Example 5, treatment of chronic fatigue. In kind it is in vivo, human. Conditions: before oxymatrine. The procedure:
A person developed debilitating fatigue, sore throat, oral ulcers, vertigo, headaches and cognitive dysfunction two months after having a flu-like illness. […] Approximately four years later, the patient started taking oxymatrine. After an initial increase of gastrointestinal symptoms for the first two weeks, the patient tolerated 500 mg per day of oxymatrine.
The symptoms continued for two weeks and resolved after stopping oxymatrine. […] They continued to improve for 12 months after taking the medication.

Turning to `O=C1CCC[C@@H]2[C@H]3CCCN4CCC[C@@H](CN12)[C@@H]34` [matrine], the “patients with improvement of cardiac function, increase in lymphocyte number and function, and loss of viral markers” value in the assay on Coxsackievirus B [1] is given as “more than 90%”. Besides, in the assay on coxsackievirus B [2], the “growth inhibition of coxsackievirus B in cell cultures” value was “growth inhibition”. The “growth inhibition of echoviruses in cell cultures” value in the assay with echoviruses is recorded as “growth inhibition”.

In the case of `CC(C)[C@H](N)C(=O)OCCOCn1cnc2c(=O)[nH]c(N)nc21` [valacyclovir, reference compound], the clinical response entry with enterovirus was “did not respond”.
